Assay results from patent US20230096766A1, “AMINO ACID HAVING FUNCTIONAL GROUP CAPABLE OF INTERMOLECULAR HYDROGEN BONDING, PEPTIDE COMPOUND CONTAINING SAME AND METHOD FOR PRODUCTION THEREOF” (Chugai Seiyaku Kabushiki Kaisha, priority 2018, published 2023).
*1 amine or outer side, *2 acyl side, *3 side chain or, on linkers, in order; H or OH if unused. Where a SMILES comes first, the peptide text is derived from it. Bridges are numbered along the chain shown (N, C = ends). [ ]: non-standard residue; d: D form. The star is where a group is joined. ξ: configuration not given here. Phe(3-OMe,4-CONHMs) = COc1cc(C[C@H](N)C(=O)O)ccc1C(=O)NS(C)(=O)=O; NMeHph(3-OMe-4-CONHMe) = CNC(=O)c1ccc(CC[C@H](NC)C(=O)O)cc1OC; dhPhe(4-CONHMe,3-OMe) = CNC(=O)c1ccc(CC[C@@H](N)C(=O)O)cc1OC; Phe(3-CONHMe,4-OMe) = CNC(=O)c1cc(C[C@H](N)C(=O)O)ccc1OC; X11 = CNC(=O)c1ccc(CCN(CC(=O)[*:2])[*:1])cc1OC; NMePhe(3-Cl) = CN[C@@H](Cc1cccc(Cl)c1)C(=O)O; X12 = O=C([C@H](CCCC(O)C(F)(F)F)N[*:1])[*:2]; NMehPhe = CN[C@@H](CCc1ccccc1)C(=O)O; X7 = O=C(C[C@H](COCCO)N[*:1])[*:2]; NMeF = CN[C@@H](Cc1ccccc1)C(=O)O; NMeGABA = CN(CCCC(=O)[*:2])[*:1]; NMeI = CC[C@H](C)[C@H](NC)C(=O)O; ξThr(3R) = C[C@@H](O)C(N)C(=O)O; CH2CH(OH)CF3 = OC(C*)C(F)(F)F; NMeL = CN[C@@H](CC(C)C)C(=O)O; Propyl(2R-OH) = C[C@@H](O)C*; NMeV = CN[C@H](C(=O)O)C(C)C; NMeAbu = CC[C@H](NC)C(=O)O; NMeA = CN[C@@H](C)C(=O)O; Piperidide = C1CCN(*)CC1; X8 = C1COC[C@@H](C*)N1; Me2NCH2CH2 = CN(C)CC*; NBuGly = CCCCNCC(=O)O; NPrGly = CCCNCC(=O)O; Propyl(3-OH) = OCCC*; Ethyl(2-OH) = OCC*; ξS = NC(CO)C(=O)O; Sar = CNCC(=O)O; tBu = CC(C)(C)*

experiment: in vitro; conditions: human, Caco-2, Caco-2

SMILES | Papp [×10⁻⁶ cm/s]
CCCN1CC(=O)N(C)[C@@H](C(C)C)C(=O)N[C@H](C(=O)N2CCCCC2)CC(=O)N(C)[C@@H](C)C(=O)N[C@@H](CC(C)C)C(=O)N(C)[C@@H](CC(C)C)C(=O)N(C)[C@@H](Cc2ccccc2)C(=O)NC(COCCN(C)C)C(=O)N(C)[C@@H](Cc2ccccc2)C(=O)N(C)[C@@H](CC(C)C)C(=O)N[C@@H]([C@@H](C)O)C1=O (stereo partly drawn) [pd57] ([NMeA]L[NMeL][NMeF][ξS](Me2NCH2CH2)[NMeF][NMeL]T[NPrGly][NMeV]D-Piperidide; lactam N-11) | 0.12
CCCCN1CC(=O)N(C)[C@@H](CC(C)C)C(=O)N[C@@H](COCCN(C)C)C(=O)N(C)[C@@H](Cc2ccccc2)C(=O)N(C)[C@@H](C(C)C)C(=O)N[C@H](C(=O)N2CCCCC2)CC(=O)N[C@H](CC(C)C)C(=O)N(C)[C@@H](Cc2ccccc2)C(=O)N[C@@H](CC(C)C)C(=O)N(C)[C@@H](CC(C)C)C(=O)N[C@@H]([C@@H](C)O)C1=O [pd51] ([dL][NMeF]L[NMeL]T[NBuGly][NMeL]S(Me2NCH2CH2)[NMeF][NMeV]D-Piperidide; lactam N-11) | 0.07

same assay, conditions: human, Caco-2, Caco-2 (cm/sec)

SMILES | Papp [×10⁻⁶ cm/s]
CC[C@H](C)[C@@H]1NC(=O)[C@H](Cc2ccccc2)N(C)C(=O)[C@@H](C)NC(=O)C[C@@H](C(=O)N2CCCCC2)NC(=O)[C@H](CC(C)C)N(C)C(=O)[C@H](C)N(C)C(=O)[C@H](COC(C)(C)C)NC(=O)[C@H](C)N(C)C(=O)CN(C)C(=O)[C@H](Cc2ccc(O)cc2)NC(=O)[C@H](CC(C)C)N(C)C1=O [pd112] ([dA][NMeF]I[NMeL]Y[Sar][NMeA]S(tBu)[NMeA][NMeL]D-Piperidide; lactam N-11) | 0.11
CCCCN1CC(=O)N(C)[C@@H](CC)C(=O)N[C@@H](COC[C@@H]2COCCN2)C(=O)N(C)[C@@H](Cc2ccccc2)C(=O)N(C)[C@@H](CC)C(=O)N[C@H](C(=O)N2CCCCC2)CC(=O)N[C@H](CC(C)C)C(=O)N(C)[C@@H](CC(C)C)C(=O)N[C@@H]([C@@H](C)CC)C(=O)N(C)[C@@H](CC(C)C)C(=O)N[C@@H]([C@@H](C)O)C1=O [AP240] ([dL][NMeL]I[NMeL]T[NBuGly][NMeAbu]S(X8)[NMeF][NMeAbu]D-Piperidide; lactam N-11) | 0.08
CCCCN1CC(=O)N(C)[C@@H](CC(C)C)C(=O)N[C@H](C(=O)N2CCCCC2)CC(=O)N(C)[C@@H](CC(C)C)C(=O)N[C@@H](COCCO)CC(=O)N(C)[C@@H](CC(C)C)C(=O)N(C)[C@@H](Cc2ccccc2)C(=O)N[C@@H](CC(C)C)C(=O)N(C)[C@@H](Cc2ccccc2)C(=O)N(C)[C@@H](CC(C)C)C(=O)N[C@@H]([C@@H](C)O)C1=O [AP23] ([NMeL][X7][NMeL][NMeF]L[NMeF][NMeL]T[NBuGly][NMeL]D-Piperidide; lactam N-11) | 0.43
CC(C)C[C@@H]1NC(=O)[C@H](Cc2cccc(Cl)c2)N(C)C(=O)[C@H](CC(C)C)N(C)C(=O)[C@H](COCCO)NC(=O)[C@H](C(C)C)N(C)C(=O)C[C@@H](C(=O)N2CCCCC2)NC(=O)[C@H](CC(C)C)N(C)C(=O)CN(C)C(=O)[C@H]([C@@H](C)O)NC(=O)[C@H](CC(C)C)N(C)C(=O)[C@H](CCc2ccccc2)N(C)C1=O [Compound A09] ([NMeV]S(Ethyl(2-OH))[NMeL][NMePhe(3-Cl)]L[NMehPhe][NMeL]T[Sar][NMeL]D-Piperidide; lactam N-11) | 0.72
CCCCN1CC(=O)N(C)[C@@H](Cc2ccccc2)C(=O)N[C@@H](COCCCO)C(=O)N(C)[C@@H](CC(C)C)C(=O)N[C@@H]([C@@H](C)O)C(=O)N(CCCC)CC(=O)N(C)[C@@H](Cc2ccccc2)C(=O)N(C)[C@@H](C(C)C)C(=O)N[C@@H](COC(C)(C)C)C(=O)N(C)[C@@H](CC(C)C)C(=O)N[C@H](C(=O)N2CCCCC2)CC1=O [AP95] ([NBuGly][NMeF]S(Propyl(3-OH))[NMeL]T[NBuGly][NMeF][NMeV]S(tBu)[NMeL]D-Piperidide; lactam N-11) | 0.69
CCCCN1CC(=O)N(C)[C@@H](CC(C)C)C(=O)N[C@@H](COC(C)(C)C)C(=O)N(C)[C@@H]([C@@H](C)CC)C(=O)N(C)[C@@H](CC(C)C)C(=O)N[C@H](C(=O)N2CCCCC2)CC(=O)N[C@H](C)C(=O)N(C)[C@@H](Cc2ccccc2)C(=O)N[C@@H](Cc2ccc(OC)c(C(=O)NC)c2)C(=O)N(C)[C@@H](CC(C)C)C(=O)N[C@@H]([C@@H](C)O)C1=O [AP37] ([dA][NMeF][Phe(3-CONHMe,4-OMe)][NMeL]T[NBuGly][NMeL]S(tBu)[NMeI][NMeL]D-Piperidide; lactam N-11) | 0.4
CNC(=O)c1ccc(CC[C@H]2NC(=O)[C@H](CC(C)C)N(C)C(=O)CN(C)C(=O)C([C@@H](C)O)NC(=O)[C@H](CC(C)C)N(C)C(=O)[C@H](CC(C)C)NC(=O)[C@H](Cc3ccccc3)N(C)C(=O)[C@@H](C(C)C)NC(=O)C[C@@H](C(=O)N3CCCCC3)NC(=O)[C@H](CC(C)C)N(C)C(=O)[C@H](CC(C)C)N(C)C2=O)cc1OC (stereo partly drawn) [AP208] ([dV][NMeF]L[NMeL][ξThr(3R)][Sar][NMeL][dhPhe(4-CONHMe,3-OMe)][NMeL][NMeL]D-Piperidide; lactam N-11) | 0.6
CC(C)C[C@H]1C(=O)N[C@@H](C(C)C)C(=O)N(C)[C@@H](Cc2ccccc2)C(=O)N(C)[C@@H](Cc2ccccc2)C(=O)N[C@@H](COC(C)(C)C)C(=O)N(C)[C@@H](CC(C)C)C(=O)N[C@@H](COC[C@@H](C)O)C(=O)N(C)[C@@H](CC(C)C)C(=O)N(C)[C@@H](CC(C)C)C(=O)N[C@H](C(=O)N2CCCCC2)CC(=O)N(C)CCCC(=O)N1C [AP83] ([NMeGABA][NMeL]V[NMeF][NMeF]S(tBu)[NMeL]S(Propyl(2R-OH))[NMeL][NMeL]D-Piperidide; lactam N-11) | 1.3
CNC(=O)c1ccc(CC[C@H]2C(=O)N(C)[C@@H](CC(C)C)C(=O)N[C@@H]([C@@H](C)O)C(=O)N(C)CC(=O)N(C)[C@@H](CC(C)C)C(=O)N[C@H](C(=O)N3CCCCC3)CC(=O)N(C)[C@@H](C)C(=O)N[C@@H](CC(C)C)C(=O)N(C)[C@@H](CC(C)C)C(=O)N(C)[C@@H](Cc3ccccc3)C(=O)N[C@@H](CC(C)C)C(=O)N2C)cc1OC [AP230] ([NMeA]L[NMeL][NMeF]L[NMeHph(3-OMe-4-CONHMe)][NMeL]T[Sar][NMeL]D-Piperidide; lactam N-11) | 0.96
CCCCN1CC(=O)N(C)[C@@H](CC(C)C)C(=O)N(C)[C@@H](CC(C)C)C(=O)N[C@@H](COC(C)(C)C)C(=O)N(C)[C@@H](CC(C)C)C(=O)N[C@H](C(=O)N2CCCCC2)CC(=O)N(C)CC(=O)N(C)[C@@H](Cc2cccc(Cl)c2)C(=O)N[C@@H](Cc2ccc(C(=O)NS(C)(=O)=O)c(OC)c2)C(=O)N(C)[C@@H](CC(C)C)C(=O)N[C@@H]([C@@H](C)O)C1=O [AP140] ([Sar][NMePhe(3-Cl)][Phe(3-OMe,4-CONHMs)][NMeL]T[NBuGly][NMeL][NMeL]S(tBu)[NMeL]D-Piperidide; lactam N-11) | 0.49
CC[C@H]1C(=O)N[C@@H]([C@@H](C)O)C(=O)N(C)CC(=O)N(C)[C@@H](Cc2ccccc2)C(=O)N(C)[C@@H](CC(C)C)C(=O)N[C@@H](COC(C)(C)C)C(=O)N(C)[C@@H](CC(C)C)C(=O)N[C@H](C(=O)N2CCCCC2)CC(=O)N(CCc2ccc(C(=O)NC)c(OC)c2)CC(=O)N(C)[C@@H](CC(C)C)C(=O)N[C@@H](CC(C)C)C(=O)N1C [AP219] ([X11][NMeL]L[NMeAbu]T[Sar][NMeF][NMeL]S(tBu)[NMeL]D-Piperidide; lactam N-11) | 1.3

same assay, conditions: human, Caco-2, Caco-2 (cm/sec) Papp

SMILES | Papp [×10⁻⁶ cm/s]
CC(C)C[C@@H]1NC(=O)[C@H](Cc2ccccc2)N(C)C(=O)[C@H](C(C)C)N(C)C(=O)C[C@@H](C(=O)N2CCCCC2)NC(=O)[C@H]([C@@H](C)O)NC(=O)[C@H](Cc2ccccc2)N(C)C(=O)[C@H](Cc2ccccc2)NC(=O)[C@H](Cc2ccccc2)N(C)C(=O)CN(C)C(=O)[C@H](C)N(C)C(=O)[C@H](CC(C)C)N(C)C1=O [pd229] ([NMeV][NMeF]L[NMeL][NMeA][Sar][NMeF]F[NMeF]TD-Piperidide; lactam N-11) | 0.41
CC[C@H](C)[C@@H]1NC(=O)[C@H](Cc2ccccc2)N(C)C(=O)[C@H]([C@@H](C)O)NC(=O)[C@@H](C)NC(=O)C[C@@H](C(=O)N(C)[C@@H](Cc2ccccc2)C(=O)N(C)[C@@H](Cc2ccccc2)C(=O)N[C@@H](C)C(=O)N2CCCCC2)NC(=O)[C@H](CC(C)C)N(C)C(=O)[C@H](CC(C)C)N(C)C(=O)[C@H](Cc2ccccc2)N(C)C(=O)[C@H](CC(C)C)N(C)C(=O)[C@H](C)N(C)C1=O [pd242] ([dA]T[NMeF]I[NMeA][NMeL][NMeF][NMeL][NMeL]D[NMeF][NMeF]A-Piperidide; lactam N-10) | 0.058

same assay, conditions: human, Caco-2, Caco-2 (membrane permeability)

SMILES | Papp [×10⁻⁶ cm/s]
CCCCN1CC(=O)N(C)[C@@H](CC(C)C)C(=O)N[C@H](C(=O)N2CCCCC2)CC(=O)N(C)[C@@H](C)C(=O)N[C@@H](CCCC(O)C(F)(F)F)C(=O)N(C)[C@@H](CC(C)C)C(=O)N(C)[C@@H](Cc2ccccc2)C(=O)N[C@@H](CC(C)C)C(=O)N(C)[C@@H](Cc2ccccc2)C(=O)N(C)[C@@H]([C@@H](C)CC)C(=O)N[C@@H]([C@@H](C)O)C1=O (stereo partly drawn) [Compound D04] ([NMeA][X12][NMeL][NMeF]L[NMeF][NMeI]T[NBuGly][NMeL]D-Piperidide; lactam N-11) | 0.2
CCCCN1CC(=O)N(C)[C@@H](CC(C)C)C(=O)N[C@@H](CCCC(O)C(F)(F)F)C(=O)N(C)[C@@H](Cc2ccccc2)C(=O)N(C)[C@@H](C(C)C)C(=O)N[C@H](C(=O)N2CCCCC2)CC(=O)N[C@H](C(C)C)C(=O)N(C)[C@@H](Cc2ccccc2)C(=O)N[C@@H](CC(C)C)C(=O)N(C)[C@@H](CC(C)C)C(=O)N[C@@H]([C@@H](C)O)C1=O (stereo partly drawn) [Compound D09] ([dV][NMeF]L[NMeL]T[NBuGly][NMeL][X12][NMeF][NMeV]D-Piperidide; lactam N-11) | 0.13
CC[C@H](C)[C@H]1C(=O)N[C@@H]([C@@H](C)O)C(=O)N(C)CC(=O)N(C)[C@@H](CC(C)C)C(=O)N[C@H](C(=O)N2CCCCC2)CC(=O)N(C)[C@@H](C(C)C)C(=O)N[C@@H](COCC(O)C(F)(F)F)C(=O)N(C)[C@@H](CC(C)C)C(=O)N(C)[C@@H](Cc2ccccc2)C(=O)N[C@@H](CC(C)C)C(=O)N(C)[C@@H](Cc2ccccc2)C(=O)N1C (stereo partly drawn) [Compound C08] ([NMeV]S(CH2CH(OH)CF3)[NMeL][NMeF]L[NMeF][NMeI]T[Sar][NMeL]D-Piperidide; lactam N-11) | 0.6
